Patent US10787452B2 (Vertex Pharmaceuticals Incorporated, priority 2012, dated 2020)

Tested on: HCT116 colorectal cancer cells
Assay: Cisplatin sensitization assay (96 h cell viability MTS);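 note: compound concentration needed to lower the Cisplatin-alone IC50 by a set fold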
Format: cell-based
Conditions: 96 h MTS, compound plus Cisplatin
Method in brief: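 Viability is measured with MTS reagent, added after 96 h and developed for 1 h at 37° C. Beforehand, cells receive compound and cisplatin simultaneously in a concentration matrix of 2-fold serial dilutions starting at 10 μM final.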

SMILES: Cc1nnccc1-c1ccncc1NC(=O)c1c(N)nn2cc(F)cnc12 [I-C-31, 2-amino-6-fluoro-N-(4-(3-methylpyridazin-4-yl)pyridin-3-yl)pyrazolo[1,5-a]pyrimidine-3-carboxamide]
- Cisplatin Sensitization Assay: +++ (Compounds with a Cisplatin sensitization value of <0.02 μM are marked with “+++.”)

SMILES: CS(=O)(=O)C1CCN(c2c(Cl)cncc2NC(=O)c2c(N)nn3cc(F)cnc23)C1 (stereo not drawn) [I-N-287, 2-amino-N-(5-chloro-4-(3-(methylsulfonyl)pyrrolidin-1-yl)pyridin-3-yl)-6-fluoropyrazolo[1,5-a]pyrimidine-3-carboxamide]
- Cisplatin Sensitization Assay: +++ (Compounds with a Cisplatin sensitization value of <0.02 μM are marked with “+++.”)

SMILES: CN1CCN(c2c(NC(=O)c3c(N)nn4cc(F)cnc34)cncc2C2CC2)CC1 [I-N-5, 2-amino-N-(5-cyclopropyl-4-(4-methylpiperazin-1-yl)pyridin-3-yl)-6-fluoropyrazolo[1,5-a]pyrimidine-3-carboxamide]
- Cisplatin Sensitization Assay: ++ (Compounds with a Cisplatin sensitization value >0.02 μM but <0.2 μM are marked with “++.”)

SMILES: COc1cc(Cl)ncc1NC(=O)c1c(N)nn2cc(CC#N)cnc12 [I-O-27, 2-amino-N-(6-chloro-4-methoxypyridin-3-yl)-6-(cyanomethyl)pyrazolo[1,5-a]pyrimidine-3-carboxamide]
- Cisplatin Sensitization Assay: ++ (Compounds with a Cisplatin sensitization value >0.02 μM but <0.2 μM are marked with “++.”)

SMILES: Nc1nn2cc(F)cnc2c1C(=O)Nc1cnccc1-n1cnc(C(F)(F)F)c1 [I-N-27, 2-amino-6-fluoro-N-(4-(4-(trifluoromethyl)-1H-imidazol-1-yl)pyridin-3-yl)pyrazolo[1,5-a]pyrimidine-3-carboxamide]
- Cisplatin Sensitization Assay: ++ (Compounds with a Cisplatin sensitization value >0.02 μM but <0.2 μM are marked with “++.”)

SMILES: Nc1nn2cc(Cl)cnc2c1C(=O)Nc1cnccc1OCCN1CCOCC1 [I-O-60, 2-amino-6-chloro-N-(4-(2-morpholinoethoxy)pyridin-3-yl)pyrazolo[1,5-a]pyrimidine-3-carboxamide]
- Cisplatin Sensitization Assay: ++ (Compounds with a Cisplatin sensitization value >0.02 μM but <0.2 μM are marked with “++.”)

SMILES: CN1CCN2CCN(c3ccncc3NC(=O)c3c(N)nn4cc(F)cnc34)CC2C1=O (stereo not drawn) [I-N-233, 2-amino-6-fluoro-N-(4-(8-methyl-9-oxohexahydro-1H-pyrazino[1,2-a]pyrazin-2(6H)-yl)pyridin-3-yl)pyrazolo[1,5-a]pyrimidine-3-carboxamide]
- Cisplatin Sensitization Assay: ++ (Compounds with a Cisplatin sensitization value >0.02 μM but <0.2 μM are marked with “++.”)

SMILES: Cc1ncn(C)c1-c1ccncc1NC(=O)c1c(N)nn2cc(F)cnc12 [I-C-78, 2-amino-N-(4-(1,4-dimethyl-1H-imidazol-5-yl)pyridin-3-yl)-6-fluoropyrazolo[1,5-a]pyrimidine-3-carboxamide]
- Cisplatin Sensitization Assay: ++ (Compounds with a Cisplatin sensitization value >0.02 μM but <0.2 μM are marked with “++.”)

SMILES: CS(=O)(=O)C1CCCN(c2ccncc2NC(=O)c2c(N)nn3cc(F)cnc23)C1 (stereo not drawn) [I-N-221, 2-amino-6-fluoro-N-(4-(3-(methylsulfonyl)piperidin-1-yl)pyridin-3-yl)pyrazolo[1,5-a]pyrimidine-3-carboxamide]
- Cisplatin Sensitization Assay: ++ (Compounds with a Cisplatin sensitization value >0.02 μM but <0.2 μM are marked with “++.”)

SMILES: N#CCc1cnc2c(C(=O)Nc3cnccc3N3CCCCC3)c(N)nn2c1 [I-N-84, 2-amino-6-(cyanomethyl)-N-(4-(piperidin-1-yl)pyridin-3-yl)pyrazolo[1,5-a]pyrimidine-3-carboxamide]
- Cisplatin Sensitization Assay: +++ (Compounds with a Cisplatin sensitization value of <0.02 μM are marked with “+++.”)

SMILES: Nc1nn2cc(F)cnc2c1C(=O)Nc1cnccc1N1CCCCCC1 [I-N-264, 2-amino-N-(4-(azepan-1-yl)pyridin-3-yl)-6-fluoropyrazolo[1,5-a]pyrimidine-3-carboxamide]
- Cisplatin Sensitization Assay: + (Compounds with a Cisplatin sensitization value >0.2 μM but <5 μM are marked with “+.”)

SMILES: CN1CCN2CCN(c3c(F)cncc3NC(=O)c3c(N)nn4cc(F)cnc34)CC2C1=O (stereo not drawn) [I-N-240, 2-amino-6-fluoro-N-(5-fluoro-4-(8-methyl-9-oxohexahydro-1H-pyrazino[1,2-a]pyrazin-2(6H)-yl)pyridin-3-yl)pyrazolo[1,5-a]pyrimidine-3-carboxamide]
- Cisplatin Sensitization Assay: ++ (Compounds with a Cisplatin sensitization value >0.02 μM but <0.2 μM are marked with “++.”)

SMILES: Cc1nc(C(=O)N2CCN(C)CC2)ccc1-c1ccncc1NC(=O)c1c(N)nn2cc(F)cnc12 [I-C-39, 2-amino-6-fluoro-N-(2-methyl-6-(4-methylpiperazine-1-carbonyl)-[3,4′-bipyridin]-3′-yl)pyrazolo[1,5-a]pyrimidine-3-carboxamide]
- Cisplatin Sensitization Assay: +++ (Compounds with a Cisplatin sensitization value of <0.02 μM are marked with “+++.”)

SMILES: Nc1nn2cc(F)cnc2c1C(=O)Nc1cnccc1CN1CCCC1=O [I-C-76, 2-amino-6-fluoro-N-(4-((2-oxopyrrolidin-1-yl)methyl)pyridin-3-yl)pyrazolo[1,5-a]pyrimidine-3-carboxamide]
- Cisplatin Sensitization Assay: + (Compounds with a Cisplatin sensitization value >0.2 μM but <5 μM are marked with “+.”)

SMILES: Nc1nn2cc(Cl)cnc2c1C(=O)Nc1cnccc1N1CCC(N)CC1 [I-N-86, 2-amino-N-(4-(4-aminopiperidin-1-yl)pyridin-3-yl)-6-chloropyrazolo[1,5-a]pyrimidine-3-carboxamide]
- Cisplatin Sensitization Assay: +++ (Compounds with a Cisplatin sensitization value of <0.02 μM are marked with “+++.”)

SMILES: Cc1ccnnc1-c1ccncc1NC(=O)c1c(N)nn2cc(F)cnc12 [I-C-33, 2-amino-6-fluoro-N-(4-(4-methylpyridazin-3-yl)pyridin-3-yl)pyrazolo[1,5-a]pyrimidine-3-carboxamide]
- Cisplatin Sensitization Assay: + (Compounds with a Cisplatin sensitization value >0.2 μM but <5 μM are marked with “+.”)

SMILES: Nc1nn2cc(F)cnc2c1C(=O)Nc1cnccc1OC1CC[S+]([O-])CC1 (stereo not drawn) [I-O-44, 2-amino-6-fluoro-N-(4-((1-oxidotetrahydro-2H-thiopyran-4-yl)oxy)pyridin-3-yl)pyrazolo[1,5-a]pyrimidine-3-carboxamide]
- Cisplatin Sensitization Assay: ++ (Compounds with a Cisplatin sensitization value >0.02 μM but <0.2 μM are marked with “++.”)

SMILES: Nc1nn2cc(Cl)cnc2c1C(=O)Nc1cnccc1N1CC[S+]([O-])CC1 [I-N-68, 2-amino-6-chloro-N-(4-(1-oxidothiomorpholino)pyridin-3-yl)pyrazolo[1,5-a]pyrimidine-3-carboxamide]
- Cisplatin Sensitization Assay: +++ (Compounds with a Cisplatin sensitization value of <0.02 μM are marked with “+++.”)

SMILES: Nc1nn2cc(Cl)cnc2c1C(=O)Nc1cnccc1N1CCC(N2CCn3cncc3C2)CC1 [I-N-101, 2-amino-6-chloro-N-(4-(4-(5,6-dihydroimidazo[1,5-a]pyrazin-7(8H)-yl)piperidin-1-yl)pyridin-3-yl)pyrazolo[1,5-a]pyrimidine-3-carboxamide]
- Cisplatin Sensitization Assay: ++ (Compounds with a Cisplatin sensitization value >0.02 μM but <0.2 μM are marked with “++.”)

SMILES: CN(C)C(=O)[C@H]1CC[C@@H](Oc2ccncc2NC(=O)c2c(N)nn3cc(F)cnc23)CC1 [I-O-17, 2-amino-N-(4-(((1s,4s)-4-(dimethylcarbamoyl)cyclohexyl)oxy)pyridin-3-yl)-6-fluoropyrazolo[1,5-a]pyrimidine-3-carboxamide]
- Cisplatin Sensitization Assay: +++ (Compounds with a Cisplatin sensitization value of <0.02 μM are marked with “+++.”)

SMILES: CN1CC2(CCN(c3ccncc3NC(=O)c3c(N)nn4cc(F)cnc34)CC2)CC1=O [I-N-236, 2-amino-6-fluoro-N-(4-(2-methyl-3-oxo-2,8-diazaspiro[4.5]decan-8-yl)pyridin-3-yl)pyrazolo[1,5-a]pyrimidine-3-carboxamide]
- Cisplatin Sensitization Assay: +++ (Compounds with a Cisplatin sensitization value of <0.02 μM are marked with “+++.”)

SMILES: Nc1nn2cc(F)cnc2c1C(=O)Nc1cnccc1N1CCC(C(=O)N2CC(F)(F)C2)CC1 [I-G-80, 2-amino-N-(4-(4-(3,3-difluoroazetidine-1-carbonyl)piperidin-1-yl)pyridin-3-yl)-6-fluoropyrazolo[1,5-a]pyrimidine-3-carboxamide]
- Cisplatin Sensitization Assay: +++ (Compounds with a Cisplatin sensitization value of <0.02 μM are marked with “+++.”)

SMILES: Nc1nn2cc(F)cnc2c1C(=O)Nc1cnccc1-n1ccnc1C(F)(F)F [I-N-219, 2-amino-6-fluoro-N-(4-(2-(trifluoromethyl)-1H-imidazol-1-yl)pyridin-3-yl)pyrazolo[1,5-a]pyrimidine-3-carboxamide]
- Cisplatin Sensitization Assay: +++ (Compounds with a Cisplatin sensitization value of <0.02 μM are marked with “+++.”)

SMILES: CN(C)CCOc1cc(C(F)(F)F)ncc1NC(=O)c1c(N)nn2cc(Cl)cnc12 [I-O-71, 2-amino-6-chloro-N-(4-(2-(dimethylamino)ethoxy)-6-(trifluoromethyl)pyridin-3-yl)pyrazolo[1,5-a]pyrimidine-3-carboxamide]
- Cisplatin Sensitization Assay: + (Compounds with a Cisplatin sensitization value >0.2 μM but <5 μM are marked with “+.”)

SMILES: CN(C)C1CN(C2CCN(c3ccncc3NC(=O)c3c(N)nn4cc(Cl)cnc34)CC2)C1 [I-N-94, 2-amino-6-chloro-N-(4-(4-(3-(dimethylamino)azetidin-1-yl)piperidin-1-yl)pyridin-3-yl)pyrazolo[1,5-a]pyrimidine-3-carboxamide]
- Cisplatin Sensitization Assay: +++ (Compounds with a Cisplatin sensitization value of <0.02 μM are marked with “+++.”)

SMILES: Nc1nn2cc(F)cnc2c1C(=O)Nc1cncc(F)c1N1CCN2C(=O)OC[C@@H]2C1 [I-N-248, (S)-2-amino-6-fluoro-N-(5-fluoro-4-(3-oxotetrahydro-1H-oxazolo[3,4-a]pyrazin-7(3H)-yl)pyridin-3-yl)pyrazolo[1,5-a]pyrimidine-3-carboxamide]
- Cisplatin Sensitization Assay: ++ (Compounds with a Cisplatin sensitization value >0.02 μM but <0.2 μM are marked with “++.”)

SMILES: Nc1nn2cc(Cl)cnc2c1C(=O)Nc1cnccc1N1CCN(CC(F)(F)F)CC1 [I-N-67, 2-amino-6-chloro-N-(4-(4-(2,2,2-trifluoroethyl)piperazin-1-yl)pyridin-3-yl)pyrazolo[1,5-a]pyrimidine-3-carboxamide]
- Cisplatin Sensitization Assay: +++ (Compounds with a Cisplatin sensitization value of <0.02 μM are marked with “+++.”)
